Reference: patent US6172079A, “5-substituted-3-oxadiazolyl-1,6-naphthyridin-2(1H)-one derivatives” (Dainippon Pharmaceutical Co., Ltd., priority 1997, dated 2001)

Tests used:
[1] = tested on: GABAA receptor complex (TBPS binding); test: TBPS Binding Assay; design: species or system Wistar rats; conditions: [35S]TBPS 0.4 nM, GABA 1 μM, rat cerebral cortex membrane, +% inverse agonistic, 0% antagonistic
Experimental: The TBPS (t-butylbicyclophosphonothionate) binding assay and the preparation of the membrane specimen were done in a similar manner to the method of Biggio, G. et al. [cf. European Journal of Pharmacology, vol.
That is, to the cerebral cortex was added a 50-fold volume of an ice-cooled buffer (a 50 mM Tris-citrate buffer containing 100 mM sodium chloride, pH 7.4) and the mixture was homogenized at 0-4° C. and then centrifuged at 20,000 g for 20 minutes. The pellets thus obtained were once subjected to homogenization in a buffer and centrifugation by the same procedure as above and then kept in freezed state at -80° C. for more than 20 hours. On the test day, the freezed pellets were thawed and then subjected twice to the homogenization-centrifugation procedure as described above.
Subsequently, the filter was moved into a liquid scintillation vial and thereto was added a liquid scintillation cocktail (ACS-II, manufactured by Amersham, USA, 10 ml) and allowed to stand for a fixed period of time. […] Separately, the same procedures were repeated in the presence of Picrotoxin to determine the non-specific binding amount. The non-specific binding amount was deducted from the total binding amount to give the specific binding amount. The binding activity of the test compound was calculated by a variation rate, i.e., a rate of the specific binding amount of the test compound to the specific binding amount in control (using a solvent).

[2] = tested on: ddY male mice (pentylentetrazol-induced convulsion); test: Test of Increasing Activity on Pentylentetrazol-induced Convulsion; type: in vivo; conditions: Mus musculus, 0.5 h, po, pentylentetrazol 70 mg/kg s.c. 15 min later, read-out: Effects (number of animals) with increased pentylentetrazol-induced convulsion (converted)
Experimental: It is known that benzodiazepine receptor inverse agonists increase convulsion induced by pentylentetrazol [cf. Progress in Neuro-Psychopharmacology and Biological Psychiatry, vol. […] Some compounds of the present invention were tested as to the activities of increasing the pentylentetrazol-induced convulsion.
A test compound (compounds disclosed in working examples) was orally administered to ddY male mice (weight; 22-25 g, five mice/group) in an amount of 5-100 mg/kg. […] The effects were evaluated by the number of mice among five mice, of which the convulsion increasing effects were observed.

benzodiazepine receptor = test: Benzodiazepine Receptor Binding Assay; conditions: read-out: BZP-receptor Binding IC50; [3H]-diazepam 1.5 nM; rat brain crude synaptosome membrane; 0° C., 20 min

TBPS binding Variation Rate [1] [%]	IC50 (benzodiazepine receptor) [nM]	SMILES	responders at 50 mg/kg [2] [%]	responders at 10 mg/kg [2] [%]	responders at 20 mg/kg ([2]; 20 mg/kg) [%]	responders at 100 mg/kg ([2]; 100 mg/kg) [%]
17	–	Cc1ccc(-c2nccc3[nH]c(=O)c(-c4nc(C)no4)cc23)cc1 [Example 184]	100	–	–	–
25	1.08	CCc1nc(-c2cc3c(-c4ccsc4)nccc3[nH]c2=O)no1 [Example 105]	80	–	–	–
34	4.49	Cc1nc(-c2cc3c(-c4ccncc4)nccc3[nH]c2=O)no1 [Example 94, 3-(5-Methyl-1,2,4-oxadiazol-3-yl)-5-(4-pyridyl)-1,6-naphthyridin-2(1H)-one]	80	–	–	–
21	0.83	CCc1nc(-c2cc3c(-c4cccs4)nccc3[nH]c2=O)no1 [Example 103, 3-(5-Ethyl-1,2,4-oxadiazol-3-yl)-5-(2-thienyl)-1,6-naphthyridin-2(1H)-one]	–	40	–	–
–	0.93	CCCc1noc(-c2cc3c(-c4ccco4)nccc3[nH]c2=O)n1 [Example 220]	–	–	80	–
22	10.5	Cc1nc(-c2cc3c(-c4ccccc4C)nccc3[nH]c2=O)no1 [Example 89, 3-(5-Methyl-1,2,4-oxadiazol-3-yl)-5-(2-methylphenyl)-1,6-naphthyridin-2(1H)-one]	100	–	–	–
12	2.21	COc1cccc(-c2nccc3[nH]c(=O)c(-c4noc(C)n4)cc23)c1 [Example 86, 3-(5-methyl-1,2,4-oxadiazol-3-yl)-5-(3-methoxyphenyl)-1,6-naphthyridin-2(1H)-one]	–	40	–	–
21	1.55	COc1cccc(-c2nccc3[nH]c(=O)c(-c4nc(C)no4)cc23)c1 [Example 186, 3-(3-Methyl-1,2,4-oxadiazol-5-yl)-5-(3-methoxyphenyl)-1,6-naphthyridin-2(1H)-one]	80	–	–	–
15	2.98	Cc1nc(-c2cc3c(-c4ccc(F)cc4)nccc3[nH]c2=O)no1 [Example 6]	–	–	–	80
20	1.65	Cc1nc(-c2cc3c(-c4ccccc4)nccc3[nH]c2=O)no1 [Example 4]	–	80	–	–
15	3.41	CCc1noc(-c2cc3c(-c4ccc(OC)cc4)nccc3[nH]c2=O)n1 [Example 210, 3-(3-Ethyl-1,2,4-oxadiazol-5-yl)-5-(4-methoxyphenyl)-1,6-naphthyridin-2(1H)-one]	–	80	–	–
-15	1.52	Cc1ccc(-c2nccc3[nH]c(=O)c(-c4noc(C5CC5)n4)cc23)cc1 [Example 58]	–	–	–	–
12	3.58	Cc1nc(-c2cc3c(CC(C)C)nccc3[nH]c2=O)no1 [Example 3]	–	–	–	–
20	1.96	CCc1nc(-c2cc3c(-c4cccnc4)nccc3[nH]c2=O)no1 [Example 106]	–	–	–	–
-13	2.51	O=c1[nH]c2ccnc(-c3cccc(Cl)c3)c2cc1-c1nc(C2CC2)no1 [Example 240]	–	–	–	–
32	1.06	CCc1noc(-c2cc3c(C4CC4)nccc3[nH]c2=O)n1 [Example 194]	–	–	–	–
21	4.21	CCc1nc(-c2cc3c(C4CCC4)nccc3[nH]c2=O)no1 [Example 21]	–	–	–	–
37	4.73	Cc1noc(-c2cc3c(-c4ccccc4Cl)nccc3[nH]c2=O)n1 [Example 179]	–	–	–	–
25	0.69	CCc1nc(-c2cc3c(C4CC4)nccc3[nH]c2=O)no1 [Example 17]	–	–	–	–
-15	4.12	Cc1ccc(-c2nccc3[nH]c(=O)c(-c4nc(C5CC5)no4)cc23)cc1 [Example 244]	–	–	–	–
25	2.31	Cc1noc(-c2cc3c(-c4ccc(F)cc4)nccc3[nH]c2=O)n1 [Example 178]	–	–	–	–

TBPS binding Variation Rate [1] [%]	IC50 (benzodiazepine receptor) [nM]	SMILES	responders at 50 mg/kg [2] [%]	responders at 10 mg/kg [2] [%]	responders at 20 mg/kg ([2]; 20 mg/kg) [%]	responders at 100 mg/kg ([2]; 100 mg/kg) [%]
-13	1.16	CCc1noc(-c2cc3c(-c4cccc(C)c4)nccc3[nH]c2=O)n1 [Example 206]	–	–	–	–
34	1.57	Cc1noc(-c2cc3c(-c4ccsc4)nccc3[nH]c2=O)n1 [Example 190]	–	–	–	–
17	1.97	CCc1noc(-c2cc3c(-c4cccc(Cl)c4)nccc3[nH]c2=O)n1 [Example 203]	–	–	–	–
38	3.69	CCc1nc(-c2cc3c(C(C)C)nccc3[nH]c2=O)no1 [Example 16]	–	–	–	–
-10	1.59	CC(C)c1noc(-c2cc3c(-c4ccc(F)cc4)nccc3[nH]c2=O)n1 [Example 228]	–	–	–	–
29	0.84	Cc1noc(-c2cc3c(-c4cccs4)nccc3[nH]c2=O)n1 [Example 189]	–	–	–	–
22	4.47	CCc1nc(-c2cc3c(CC4CCCCC4)nccc3[nH]c2=O)no1 [Example 24]	–	–	–	–
18	–	CCc1noc(-c2cc3c(C)nccc3[nH]c2=O)n1 [Example 191, 3-(3-Ethyl-1,2,4-oxadiazol-5-yl)-5-methyl-1,6-naphthyridin-2(1H)-one]	–	100	–	–
22	2.09	CCc1noc(-c2cc3c(-c4ccccc4Cl)nccc3[nH]c2=O)n1 [Example 202]	–	–	–	–
38	0.61	Cc1nc(-c2cc3c(-c4ccco4)nccc3[nH]c2=O)no1 [Example 91]	–	–	–	–
12	2.39	Cc1nc(-c2cc3c(-c4cccc(Cl)c4)nccc3[nH]c2=O)no1 [Example 7]	–	–	–	–
32	0.75	Cc1nc(-c2cc3c(-c4cccs4)nccc3[nH]c2=O)no1 [Example 92]	–	–	–	–
12	1.12	O=c1[nH]c2ccnc(-c3ccsc3)c2cc1-c1noc(C2CC2)n1 [Example 123]	–	–	–	–
44	4.1	CCc1noc(-c2cc3c(C(C)C)nccc3[nH]c2=O)n1 [Example 193]	–	–	–	–
-9	0.96	CC(C)c1nc(-c2cc3c(-c4ccccc4)nccc3[nH]c2=O)no1 [Example 45]	–	–	–	–
10	1.12	CC(C)c1noc(-c2cc3c(-c4ccco4)nccc3[nH]c2=O)n1 [Example 229]	–	–	–	–
27	1.26	CCc1noc(-c2cc3c(-c4ccsc4)nccc3[nH]c2=O)n1 [Example 212]	–	–	–	–
16	2.82	CCc1nc(-c2cc3c(-c4ccccc4Cl)nccc3[nH]c2=O)no1 [Example 96]	–	–	–	–
-13	2.77	CCc1nc(-c2cc3c(CC(C)C)nccc3[nH]c2=O)no1 [Example 20]	–	–	–	–
34	1.75	Cc1nc(-c2cc3c(-c4ccsc4)nccc3[nH]c2=O)no1 [Example 93]	–	–	–	–

SMILES	TBPS binding Variation Rate [1] [%]	IC50 (benzodiazepine receptor) [nM]	responders at 50 mg/kg [2] [%]	responders at 10 mg/kg [2] [%]	responders at 20 mg/kg ([2]; 20 mg/kg) [%]	responders at 100 mg/kg ([2]; 100 mg/kg) [%]
O=c1[nH]c2ccnc(-c3ccsc3)c2cc1-c1nc(C2CC2)no1 [Example 247, 3-(3-Cyclopropyl-1,2,4-oxadiazol-5-yl)-5-(3-thienyl)-1,6-naphthyridin-2(1H)-one]	16	1.39	80	–	–	–
